Laboratory results from ChEMBL document CHEMBL1201862, “PubChem BioAssay data set” (2004).
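Assay format: 96-well plates, 48-hour exposure. Abbreviation: GI50, concentration required for 50% inhibition of growth.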 The source made the active and inactive calls. Rule as the data show it: active = GI50 up to about 1.1 µM and inactive = higher.

Tests used:
Test in all cases: DTP human tumour cell line panel, 48 h
786-0 = system: 786-0
A498 = system: A498
A549 = system: A549
ACHN = system: ACHN
BT-549 = system: BT-549
CAKI-1 = system: CAKI-1
COLO 205 = system: COLO 205
DU-145 = system: DU-145
EKVX = system: EKVX
HCC 2998 = system: HCC 2998
HCT-116 = system: HCT-116
HCT-15 = system: HCT-15
HL-60 = system: HL-60
HOP-62 = system: HOP-62
HT-29 = system: HT-29
IGROV-1 = system: IGROV-1
K562 = system: K562
KM12 = system: KM12
LOX IMVI = system: LOX IMVI
M14 = system: M14
MCF7 = system: MCF7
MDA-MB-231 = system: MDA-MB-231
MDA-MB-435 = system: MDA-MB-435
MDA-N = system: MDA-N
MOLT-4 = system: MOLT-4
Malme-3M = system: Malme-3M
NCI-H226 = system: NCI-H226
NCI-H23 = system: NCI-H23
NCI-H522 = system: NCI-H522
NCI/ADR-RES = system: NCI/ADR-RES
OVCAR-3 = system: OVCAR-3
OVCAR-4 = system: OVCAR-4
OVCAR-5 = system: OVCAR-5
OVCAR-8 = system: OVCAR-8
PC-3 = system: PC-3
RPMI-8226 = system: RPMI-8226
RXF 393 = system: RXF 393
SF-268 = system: SF-268
SF-295 = system: SF-295
SK-MEL-28 = system: SK-MEL-28
SK-MEL-2 = system: SK-MEL-2
SK-MEL-5 = system: SK-MEL-5
SK-OV-3 = system: SK-OV-3
SN12C = system: SN12C
SNB-19 = system: SNB-19
SR = system: SR
SW-620 = system: SW-620
T47D = system: T47D
TK-10 = system: TK-10
U-251 = system: U-251
UACC-257 = system: UACC-257
UACC-62 = system: UACC-62
UO-31 = system: UO-31
CCRF-CEM = system: CCRF-CEM
HOP-92 = system: HOP-92
Hs-578T = system: Hs-578T
NCI-H460 = system: NCI-H460
SF-539 = system: SF-539
SNB-75 = system: SNB-75

Measured: GI50

NCCCNCCCNCCCN
> 100 µM: HCT-15
inactive: 786-0 > 100 µM | A498 > 100 µM | A549 > 100 µM | ACHN > 100 µM | BT-549 > 100 µM | CAKI-1 > 100 µM | COLO 205 > 100 µM | DU-145 > 100 µM | EKVX > 100 µM | HCC 2998 > 100 µM | HCT-116 > 100 µM | HL-60 > 100 µM | HOP-62 > 100 µM | HT-29 > 100 µM | IGROV-1 > 100 µM | K562 25.2 µM | KM12 > 100 µM | LOX IMVI > 100 µM | M14 > 100 µM | MCF7 > 100 µM | MDA-MB-231 > 100 µM | MDA-MB-435 > 100 µM | MDA-N > 100 µM | MOLT-4 14.9 µM | Malme-3M > 100 µM | NCI-H226 > 100 µM | NCI-H23 > 100 µM | NCI-H522 54.3 µM | NCI/ADR-RES > 100 µM | OVCAR-3 > 100 µM | OVCAR-4 > 100 µM | OVCAR-5 > 100 µM | OVCAR-8 > 100 µM | PC-3 > 100 µM | RPMI-8226 16.4 µM | RXF 393 > 100 µM | SF-268 3.48 µM | SF-295 > 100 µM | SK-MEL-28 > 100 µM | SK-MEL-2 > 100 µM | SK-MEL-5 > 100 µM | SK-OV-3 > 100 µM | SN12C > 100 µM | SNB-19 > 100 µM | SR 18.8 µM | SW-620 > 100 µM | T47D 12.6 µM | TK-10 > 100 µM | U-251 > 100 µM | UACC-257 > 100 µM | UACC-62 > 100 µM | UO-31 > 100 µM

CN1CCC2(CC1)SSC1(CCN(C)CC1)S2
> 100 µM: HCT-15
inactive: 786-0 > 100 µM | A549 > 100 µM | ACHN > 100 µM | BT-549 23.9 µM | CCRF-CEM > 100 µM | COLO 205 80.2 µM | HCT-116 > 100 µM | HL-60 > 100 µM | HOP-62 > 100 µM | HOP-92 > 100 µM | HT-29 > 100 µM | Hs-578T > 100 µM | K562 > 100 µM | KM12 > 100 µM | LOX IMVI 2.35 µM | M14 > 100 µM | MDA-MB-231 > 100 µM | MDA-MB-435 > 100 µM | MDA-N > 100 µM | MOLT-4 > 100 µM | NCI-H23 > 100 µM | NCI-H460 > 100 µM | NCI/ADR-RES > 100 µM | OVCAR-4 > 100 µM | OVCAR-5 > 100 µM | OVCAR-8 > 100 µM | PC-3 > 100 µM | RPMI-8226 > 100 µM | SF-295 > 100 µM | SF-539 > 100 µM | SK-MEL-28 > 100 µM | SK-MEL-2 > 100 µM | SK-MEL-5 60.5 µM | SK-OV-3 > 100 µM | SN12C > 100 µM | SNB-19 69.3 µM | SNB-75 > 100 µM | SR > 100 µM | SW-620 > 100 µM | U-251 > 100 µM | UACC-257 > 100 µM | UACC-62 46.7 µM | UO-31 > 100 µM

O=C(N/N=C/c1ccccc1O)c1ccccc1Nc1ccccc1C(=O)N/N=C/c1ccccc1O
0.329 µM: HCT-15
inactive: A498 > 100 µM | A549 1.62 µM | BT-549 7.03 µM | DU-145 2.25 µM | HCC 2998 > 100 µM | HL-60 1.69 µM | HOP-92 2.26 µM | KM12 1.38 µM | MDA-MB-231 99.3 µM | MDA-MB-435 2.41 µM | MDA-N > 100 µM | NCI-H23 1.84 µM | OVCAR-5 > 100 µM | PC-3 13.4 µM | SF-539 2.19 µM | SK-OV-3 3.1 µM | SNB-19 3.41 µM | SNB-75 3.09 µM | TK-10 5.87 µM | U-251 3.48 µM | UACC-257 2.97 µM
active: 786-0 0.214 µM | ACHN 0.394 µM | CAKI-1 0.617 µM | CCRF-CEM 0.931 µM | COLO 205 0.303 µM | EKVX 0.398 µM | HCT-116 0.198 µM | HOP-62 0.432 µM | HT-29 0.518 µM | IGROV-1 0.458 µM | K562 1 µM | LOX IMVI 0.154 µM | M14 0.953 µM | MCF7 0.583 µM | MOLT-4 0.102 µM | Malme-3M 0.29 µM | NCI-H226 0.403 µM | NCI-H460 0.371 µM | NCI-H522 0.277 µM | NCI/ADR-RES 1 µM | OVCAR-3 0.0546 µM | OVCAR-4 0.375 µM | OVCAR-8 0.647 µM | SF-268 0.255 µM | SF-295 0.975 µM | SK-MEL-28 0.182 µM | SK-MEL-5 0.541 µM | SR 0.566 µM | T47D 0.859 µM | UACC-62 1.05 µM | UO-31 0.411 µM

CC(C)(C)[Si](C)(C)OCC1OC(n2cnc3c(N)ncnc32)CC1OS(C)(=O)=O (stereo not drawn)
active: HOP-92 0.506 µM
> 100 µM: HCT-15
inactive: A498 43 µM | BT-549 54 µM | CAKI-1 > 100 µM | CCRF-CEM > 100 µM | COLO 205 > 100 µM | DU-145 > 100 µM | HCT-116 72.1 µM | HL-60 64.9 µM | HOP-62 45.8 µM | HT-29 > 100 µM | IGROV-1 > 100 µM | K562 > 100 µM | KM12 > 100 µM | LOX IMVI > 100 µM | M14 21.7 µM | MCF7 > 100 µM | MDA-MB-231 22.1 µM | MDA-MB-435 > 100 µM | MDA-N > 100 µM | MOLT-4 > 100 µM | Malme-3M > 100 µM | NCI-H226 > 100 µM | NCI-H23 51.1 µM | NCI-H460 > 100 µM | NCI/ADR-RES > 100 µM | OVCAR-3 27.4 µM | OVCAR-4 > 100 µM | OVCAR-5 89.1 µM | OVCAR-8 > 100 µM | PC-3 > 100 µM | RPMI-8226 > 100 µM | RXF 393 25.6 µM | SF-295 > 100 µM | SK-MEL-28 > 100 µM | SK-MEL-2 > 100 µM | SK-OV-3 > 100 µM | SN12C > 100 µM | SNB-19 > 100 µM | SR > 100 µM | SW-620 > 100 µM | T47D > 100 µM | TK-10 42 µM | U-251 > 100 µM | UACC-257 > 100 µM | UACC-62 42.1 µM | UO-31 51.4 µM
